Earlier results as cited in patent US20030130231A1, “2:1 Complex of beta- or gamma-cyclodextrin and alpha-tocopherol” (WACKER-CHEMIE GmbH, priority 2002, published 2003).
Like-named read-outs stand apart in the source and are kept apart here.

Key:
[1] = cited from earlier work
[2] = cited from earlier work; remark: listed apart in the source

Cc1c(C)c2c(c(C)c1O)CC[C@@](C)(CCC[C@H](C)CCC[C@H](C)CCCC(C)C)O2 [α-tocopherol]
can be kept in the original packaging ([1]; stored at 5° C.): up to 24 months
can be kept in the original packaging ([1]; stored at room temperature): ≤ 12 months
solubility in water [2]: insoluble in water
